Results on one compound are retold here after patent publication US5277897A, “In vivo enhancement of cellular accumulation of lipophilic cationic organometallic compounds by reduction of intramembrane potential” (Brigham and Women's Hospital, priority 1992, dated 1994).

The structures appear in SMILES notation.

For experiment [1], the system named is cultured chick heart cells. Put plainly: Effect of MSA on Tc-MIBI net accumulation (FIG. 3). Format: cell-based. The following applies: TPB 10^-5 M, n=3. As to the method: FIG. 3. Effect of MSA on Tc-MIBI net accumulation. Preparations were incubated for the times indicated in Tc-MIBI loading buffer containing 5.4 mM KCl (.quadrature., .smallcircle.) or 5.4 mM K-MSA ( , ·; prepared by equimolar substitution of K-MSA KCl) in the absence (.quadrature., ) or presence (.smallcircle., ·) of TPB (10^-5 M). Each point represents the mean ±SEM of 3 determinations.
Control buffer was a modified Earle's balanced salt solution (MEBSS) with the following composition (mN) Na^30, 145; K^+, 5.4; Ca^2, 1.2; Mg^2+, 0.8; Cl, 152; H2 PO4, 0.8; SO4^2-, 0.8; dextrose, 5.6; HEPES, 4.0; and bovine calf serum, 1% (v/v); […]; 37° C. K-methanesulfonate was made by titration of methanesulfonic acid with KOH (Piwnica-Worms, D., et al., J. Gen. Physiol. 81:731-748 (1983)) and replaced […] in some solutions by equimolar substitution where indicated. Natetraphenylborate, CCCP, bumetanide and valinomycin were dissolved into DMSO prior to addition to buffer. DMSO alone has no significant affect on contractile activity, action potential configuration (Lieberman, M., et al., Dev. Biol. 31:380-403 (1973)) or Tc-MIBI uptake kinetics (Piwnica-Worms, D., et al., Circ. (in press)).
(§1) Monolayers of spontaneously contractile chick ventricular myocardial cells were obtained from disaggregated 10-day old chick embryo hearts by a slight modification of previously published methods (Horres, C. R., et al., In Pinson, A. (ed.), The Heart Cell in Culture, Boca Raton, CRC Press, pp. 77-108 (1987)). […] Cells were centrifuged at 400 g for 10 minutes, resuspended and combined in culture medium, counted with a hemocytometer and diluted to yield a suspension of 5×10^5 cells/ml. […]
Radioactive uptake methods have been described in detail (Piwnica-Worms, D., et al, Circ. (in press). Briefly, coverslips with confluent cells were removed from culture media and pre-equilibrated for 40-60 seconds in MEBSS buffer. Uptake and retention experiments were initiated by immersion of coverslips in 60 mm glass Pyrex dishes containing loading solution consisting of buffer with 0.1-0.6 nM [^99m Tc-MIBI] (0.01-0.4 Ci/nmole; 25-100 uCi/ml). Preparations were removed at various times and rinsed three times in 25 ml volumes of ice-cold (2° C.) isotope-free buffer for 8 seconds each to clear extracellular spaces. Preparations and aliquots of the loading buffer and stock solutions were counted in a well-type sodium iodide gamma counter after which cell protein on each coverslip was extracted in 1% sodium dodecylsulfate with 10 mM sodium borate and assayed by the method of Lowry (Lowry, O. H., et al., J. Biol. Chem. 193:265-275 (1951)). […]

Experiment [2] concerns cultured chick heart cells. Put plainly: Ko-dependence of Tc-MIBI net uptake in the absence and presence of TPB (FIG. 5). The following applies: absence of TPB; more pronounced in presence of TPB. Format: cell-based. As to the method: FIG. 5. Ko -dependence of Tc-MIBI net uptake in the absence ( ) and presence (.quadrature.) of TPB (10^-5 M). Peak accumulation of Tc-MIBI was determined in preparations incubated in loading buffers containing the indicated Ko (equimolar replacement of NaCl by KCl) for 40 minutes (control) or for 20 minutes (+TPB). Ko -induced cell volume changes were prevented by addition of bumetanide (10^-5 M) to each buffer. Each point is the mean ±SEM of 3 determinations. Solid lines have no theoretical significance. The dashed line represents the Tc-MIBI content expected at each Ko assuming an intracellular/extracellular Tc-MIBI concentration ratio equal to the Ki /Ko ratio.
as §1, with “(1987)). Hearts were trimmed of connective tissue and atria, finely minced and serially exposed to 0.024% (w/v) trypsin in Ca^2+ - and Mg^2+ - free Earle's salt solution for 7 minutes at 37° C.” for “(1987)).”

`[C-]#[N+]CC(C)(C)OC.[C-]#[N+]CC(C)(C)OC.[C-]#[N+]CC(C)(C)OC.[C-]#[N+]CC(C)(C)OC.[C-]#[N+]CC(C)(C)OC.[C-]#[N+]CC(C)(C)OC.[Tc]` [Tc-MIBI, hexakis(methoxyisobutylisonitrile)technetium(I)]: the Tc-MIBI uptake is listed as 79.3±1.1 fmol Tc-MIBI/mg protein per nM in experiment [1] (130 mM K-MSA buffer, P=0.01) and 63.7±3.2 fmol Tc-MIBI/mg protein per nM in experiment [1] (130 mM KCl buffer + bumetanide 10^-5 M). In experiment [2], the “nominal intracellular/extracellular accumulation ratio vs Ki/Ko ratio” value is “greater than those expected from the Ki /Ko ratios in the absence of TPB”.
